Test: photoluminescence quantum yield (fraction); solvent given as SMILES
[1] = in O=P(c1ccccc1)(c1ccccc1)c1ccccc1Oc1ccccc1P(=O)(c1ccccc1)c1ccccc1

Fc1c(-n2c3ccccc3c3ccccc32)c(F)c(-n2c3ccccc3c3ccccc32)c(-c2nnc(-c3ccccc3)o2)c1-n1c2ccccc2c2ccccc21
photoluminescence quantum yield (in Cc1ccccc1): 0.06

COc1ccc(-n2nc(C#N)c(N3CCCC3)n2)cc1
photoluminescence quantum yield (in CC#N): 0.936
photoluminescence quantum yield (in CO): 0.98

O=Cc1cc(C=O)c2ccc3c(N4CCCCC4)cc(N4CCCCC4)c4ccc1c2c43
photoluminescence quantum yield (in C1COCCO1): 0.92
photoluminescence quantum yield (in CC#N): 0.88
photoluminescence quantum yield (in CC(C)=O): 0.9
photoluminescence quantum yield (in CCCCCC): 0.93
photoluminescence quantum yield (in CCO): 0.87
photoluminescence quantum yield (in CCOC(C)=O): 0.93
photoluminescence quantum yield (in CO): 0.83
photoluminescence quantum yield (in CS(C)=O): 0.75
photoluminescence quantum yield (in Cc1ccccc1): 0.94
photoluminescence quantum yield (in ClCCl): 0.91

N#Cc1c(-n2c3ccccc3c3ccccc32)cc(N2c3ccccc3C(c3ccccc3)(c3ccccc3)c3ccccc32)cc1-n1c2ccccc2c2ccccc21
photoluminescence quantum yield (in Cc1ccccc1): 0.27

CCCCN1C(=O)c2ccc3c4ccc5c6c(cc(Br)c(c7ccc(c2c37)C1=O)c64)C(=O)N(CCCC)C5=O
photoluminescence quantum yield (in ClCCl): 0.92

N#Cc1ccc(-n2c(-c3ccc(-c4ccc(-n5c6ccccc6c6ccccc65)cc4)s3)nc3c4ccccc4c4ccccc4c32)c2ccccc12
photoluminescence quantum yield (in ClCCl): 0.78

CC[N+]1(CC)CN2C(=N1)C(C(=O)O)=Cc1c(OC)ccc(OC)c12
photoluminescence quantum yield (in O): 0.018

CCCCN(CCCC)c1ccc(C#Cc2cc(C#Cc3c(F)c(F)c(F)c(F)c3F)c(C#Cc3c(F)c(F)c(F)c(F)c3F)cc2C#Cc2ccc(N(CCCC)CCCC)cc2)cc1
photoluminescence quantum yield (in ClCCl): 0.17

CCCCCCC1(CCCCCC)c2cc(-c3ccc(-c4ccc(-c5ccc(-c6ccc7c(c6)C(CCCCCC)(CCCCCC)c6cc(-n8c9ccccc9c9ccccc98)ccc6-7)s5)c5nsnc45)s3)ccc2-c2ccc(-n3c4ccccc4c4ccccc43)cc21
photoluminescence quantum yield (in ClCCl): 0.39

CC1=CC(C)=[N+]2C1=C(c1c(-c3ccccn3)nc3ccccn13)c1c(C)cc(C)n1[B-]2(F)F
photoluminescence quantum yield (in ClCCl): 0.635

CC(C)(C)c1cc(-c2c3cc(c(-c4cc(C(C)(C)C)cc(C(C)(C)C)c4)c4ccc([nH]4)c(-c4ccc(Br)cc4)c4nc(c(-c5ccc(Br)cc5)c5ccc2[nH]5)C=C4)N=C3)cc(C(C)(C)C)c1
photoluminescence quantum yield (in ClCCl): 0.0127

Cc1ccc(C(=O)OCc2ccc3c4cccc5cccc(c6cccc2c63)c54)cc1
photoluminescence quantum yield (in CCO): 0.93

CCC1=C(C)C2=C(c3cc(C4=C5C(C)=C(CC)C(C)=[N+]5[B-](F)(F)n5c(C)c(CC)c(C)c54)cc(C4=C5C(C)=C(CC)C(C)=[N+]5[B-](F)(F)n5c(C)c(CC)c(C)c54)c3)c3c(C)c(CC)c(C)n3[B-](F)(F)[N+]2=C1C
photoluminescence quantum yield (in C1CCOC1): 0.91
photoluminescence quantum yield (in CC#N): 0.62
photoluminescence quantum yield (in CN(C)C=O): 0.73
photoluminescence quantum yield (in Cc1ccccc1): 0.95
photoluminescence quantum yield (in ClC(Cl)Cl): 0.88

COC(=O)c1nc(-c2cccc3ccccc23)oc1C
photoluminescence quantum yield (in C1CCCCC1): 0.58
photoluminescence quantum yield (in CC#N): 0.51
photoluminescence quantum yield (in CCO): 0.5
photoluminescence quantum yield (in CCOC(C)=O): 0.54

COc1ccc(C#Cc2c3cc4ccccc4cc3c(C#C[Si](C(C)C)(C(C)C)C(C)C)c3cc4ccccc4cc23)cc1
photoluminescence quantum yield (in ClCCl): 0.05

CC1(C)c2ccccc2N(c2ccc(-c3nnc(-c4ccc(-n5c6ccccc6c6ccccc65)cc4)o3)cc2)c2ccccc21
photoluminescence quantum yield [1]: 0.67

Nc1nc2c([nH]c(=O)n2[C@H]2C[C@H](O)[C@@H](CO)O2)c(=O)[nH]1
photoluminescence quantum yield (in O): 0.00013

COc1ccc(-c2c(-c3ccc(OC)cc3)c3c4c(cccc4c2-c2ccccc2)C(=O)c2ccccc2-3)cc1
photoluminescence quantum yield (in CC#N): 0.55
photoluminescence quantum yield (in CO): 0.05

CC1(C)c2ccccc2N(c2ccc3c(c2)S(=O)(=O)c2cc(N4c5ccccc5C(C)(C)c5ccccc54)ccc2C3(C)C)c2ccccc21
photoluminescence quantum yield [1]: 0.62

N#Cc1ccc(C#Cc2ccc3ccc4ccc(C#Cc5ccc(C#N)cc5)c5ccc2c3c45)cc1
photoluminescence quantum yield (in CCCCCC): 0.8
photoluminescence quantum yield (in CO): 0.734
photoluminescence quantum yield (in ClCCl): 0.732

COCCOCCOCCOCCOc1ccc(OCCOCCOCCOCCOC)c(C=O)c1
photoluminescence quantum yield (in CC(C)(C)O): 0.19
photoluminescence quantum yield (in CC(C)CO): 0.29
photoluminescence quantum yield (in CC(C)O): 0.24
photoluminescence quantum yield (in CCCCO): 0.32
photoluminescence quantum yield (in CCCO): 0.27
photoluminescence quantum yield (in CCO): 0.25
photoluminescence quantum yield (in CN(C)C=O): 0.02
photoluminescence quantum yield (in CNC=O): 0.1
photoluminescence quantum yield (in CO): 0.22
photoluminescence quantum yield (in NC=O): 0.43
photoluminescence quantum yield (in O): 0.11

c1ccc(N2N=C(c3cccc4ccccc34)CC2c2ccc3ccc4cccc5ccc2c3c45)cc1 (stereo not drawn)
photoluminescence quantum yield (in ClCCl): 0.58

C(=C\c1ncc2ccccc2n1)/c1ccc(N2CCCCC2)cc1
photoluminescence quantum yield (in ClCCl): 0.21

CCCCCCN1C(=O)c2cccc3cc(/N=C\c4ccc(N(c5ccccc5)c5ccccc5)cc4)cc(c23)C1=O
photoluminescence quantum yield (in ClC(Cl)Cl): 0.14

CN(C)c1ccc(/C=C/c2nc3ccc(Br)cc3nc2-c2ccccc2)cc1
photoluminescence quantum yield (in C1COCCO1): 0.19
photoluminescence quantum yield (in CC#N): 0.01
photoluminescence quantum yield (in ClCCl): 0.17

O=Cc1ccc(C#CC(C#Cc2ccc(C=O)s2)=Cc2ccc(C=C(C#Cc3ccc(C=O)s3)C#Cc3ccc(C=O)s3)cc2)s1
photoluminescence quantum yield (in ClC(Cl)Cl): 0.08

COc1ccc2c(c1)c1cc(OC)ccc1n2-c1ccc2c(c1)-c1cc(-n3c4ccc(OC)cc4c4cc(OC)ccc43)ccc1P2(=O)c1ccccc1
photoluminescence quantum yield (in Cc1ccccc1): 0.79
photoluminescence quantum yield (in c1ccc2c(c1)c1ccccc1n2-c1ccc(-c2ccc(-n3c4ccccc4c4ccccc43)cc2)cc1): 0.78

c1ccc2c(c1)Cc1ccccc1N2c1c2ccccc2c(N2c3ccccc3Cc3ccccc32)c2ccccc12
photoluminescence quantum yield (in Cc1ccccc1): 0.06

c1ccc(-c2nnc(-c3ccccc3)n2-c2ccc(N3c4ccccc4N(c4ccccc4)c4ccccc43)cc2)cc1
photoluminescence quantum yield (in Cc1ccccc1): 0.03
photoluminescence quantum yield (in c1cc(-n2c3ccccc3c3ccccc32)cc(-n2c3ccccc3c3ccccc32)c1): 0.12

Cc1ccc2c(c1)c1cc(C)ccc1n2-c1cc(-c2nc(-c3ccccc3)nc(-c3ccccc3)n2)cc(-n2c3ccc(C)cc3c3cc(C)ccc32)c1-n1c2ccc(C)cc2c2cc(C)ccc21
photoluminescence quantum yield [1]: 1

c1ccc(-c2nc(-c3nc(-c4ccccc4)c(-c4ccccc4)o3)oc2-c2ccccc2)cc1
photoluminescence quantum yield (in C1COCCO1): 0.57

COC(=O)c1[nH]c(-c2ccccc2)c2nnc3ccsc3c12
photoluminescence quantum yield (in ClCCl): 0.111

CN1C(C(=O)Nc2ccccn2)=C([O-])c2sccc2S1(=O)=O
photoluminescence quantum yield (in CCCCO): 0.0112
photoluminescence quantum yield (in CCCO): 0.0085
photoluminescence quantum yield (in CCO): 0.00451
photoluminescence quantum yield (in CO): 0.00214

COc1ccc(/C=C/C2=CC(/C=C/c3ccc(OC)c4ccccc34)=[O+][B-](F)(F)O2)c2ccccc12
photoluminescence quantum yield (in CC#N): 0.12
photoluminescence quantum yield (in CC(C)=O): 0.21
photoluminescence quantum yield (in CCOC(C)=O): 0.31
photoluminescence quantum yield (in CCOCC): 0.29
photoluminescence quantum yield (in ClC(Cl)(Cl)Cl): 0.23
photoluminescence quantum yield (in ClCCl): 0.39

O=C([O-])c1ccc(C2=c3cc4c5c(c3Oc3c2cc2c6c3CCCN6CCC2)CCC[N+]=5CCC4)c(C(=O)[O-])c1
photoluminescence quantum yield (in CCO): 0.79
photoluminescence quantum yield (in O): 0.6

Cc1ccc(C2=C3C=CC(Sc4ccccc4)=[N+]3[B-](F)(F)n3c(Sc4ccccc4)ccc32)cc1
photoluminescence quantum yield (in C1CCOC1): 0.82

CCN(CC)c1ccc2c(c1)oc(=O)c1cc3c(-c4ccccc4)nn(-c4ccccc4)c3nc12
photoluminescence quantum yield (in C1CCCCC1): 0.31
photoluminescence quantum yield (in CCOC(C)=O): 0.195
photoluminescence quantum yield (in CN(C)C=O): 0.013
photoluminescence quantum yield (in CO): 0.002
photoluminescence quantum yield (in ClCCl): 0.24

COc1ccc(-c2nc(-c3ccccc3O)c(-c3ccccc3O)n2-c2ccc(C)cc2)cc1
photoluminescence quantum yield (in C1CCOC1): 0.01
photoluminescence quantum yield (in CS(C)=O): 0.01
photoluminescence quantum yield (in ClC(Cl)Cl): 0.01
photoluminescence quantum yield (in ClCCl): 0.04

O=C1c2ccccc2-c2nc3c(F)c(F)c(F)c(F)c3n21
photoluminescence quantum yield (in ClCCl): 0.22

CCCCCCCCn1c(=O)c2cc3cc4cc5c(=O)n(CCCCCCCC)c(=O)c5cc4c(-c4ccc(N(c5ccccc5)c5ccccc5)cc4)c3cc2c1=O
photoluminescence quantum yield (in ClC(Cl)Cl): 0.04

Cc1cc(C)nc(N)n1
photoluminescence quantum yield (in CCO): 0.15
photoluminescence quantum yield (in CO): 0.248
photoluminescence quantum yield (in O): 0.048

N#Cc1c(C#N)c2cc(F)ccc2c2ccc(F)cc12
photoluminescence quantum yield (in ClC(Cl)Cl): 0.08

CCCCCCCCOc1ccc(C#Cc2ccc3c(c2)c2ccccc2n3CCCCCCCC)c(OCCCCCCCC)c1
photoluminescence quantum yield (in ClCCl): 0.33

COc1ccc(-c2nc(-c3ccccc3)c(-c3ccccc3)[nH]2)cc1
photoluminescence quantum yield (in CO): 0.18

N#CC(C#N)=Cc1ccc2c(c1)c1ccccc1n2-c1cc2ccccc2c2ccccc12
photoluminescence quantum yield (in CC#N): 0.09
photoluminescence quantum yield (in CCCCC): 0.16
photoluminescence quantum yield (in Cc1ccccc1): 0.16
photoluminescence quantum yield (in ClCCl): 0.04

CCCCCCc1cc2c3c(c1)c(=C1c4ccccc4Sc4ccccc41)c1cc(CCCCCC)cc4c1N3c1c(cc(CCCCCC)cc1c4=C1c3ccccc3Sc3ccccc31)c2=C1c2ccccc2Sc2ccccc21
photoluminescence quantum yield (in ClCCl): 0.57

CCOC(=O)c1ccccc1-c1c2ccc(=O)cc-2oc2cc(OC(=O)[C@H](CO[Si](C)(C)C(C)(C)C)NC(=O)OC(C)(C)C)ccc12
photoluminescence quantum yield (in C1CCOC1): 0.003
photoluminescence quantum yield (in CC#N): 0.003
photoluminescence quantum yield (in CCO): 0.048
photoluminescence quantum yield (in CS(C)=O): 0.01

Cc1ccc(-c2ccc(/C=C/c3ccc(F)cc3)cn2)nc1
photoluminescence quantum yield (in CC#N): 0.69

CCN1C(=O)C(C2C(=O)c3c4ccccc4cc4cc5ccccc5c2c34)SC1=S (stereo not drawn)
photoluminescence quantum yield (in C1CCOC1): 0.258
photoluminescence quantum yield (in CC#N): 0.135
photoluminescence quantum yield (in CCCCCC): 0.33
photoluminescence quantum yield (in Cc1ccccc1): 0.339
photoluminescence quantum yield (in ClCCl): 0.229

COc1c2ccccc2c(OC)c2c1c1c(F)cccc1n2C
photoluminescence quantum yield (in C1CCCCC1): 0.38
photoluminescence quantum yield (in CC#N): 0.26
photoluminescence quantum yield (in CO): 0.33
photoluminescence quantum yield (in ClCCl): 0.41

COc1ccccc1C1=NC2c3cccc4cccc(c34)C2N1c1ccccc1 (stereo not drawn)
photoluminescence quantum yield (in Cc1ccccc1): 0.01

C=Cc1cc2ccc(N(CC)CC)cc2oc1=O
photoluminescence quantum yield (in CC#N): 0.98

CCCCCOc1cc2oc(=O)c3c4ccc(N(c5ccccc5)c5ccccc5)cc4c4ccc5cccc6c(c1)c2c3c4c56
photoluminescence quantum yield (in C1CCOC1): 0.752
